Data: patent US20240300980A1, “HETEROCYCLIC COMPOUNDS AS KRAS INHIBITOR, AND PREPARATION THEREFOR AND USE THEREOF IN TREATMENT” (SHANGHAI KECHOW PHARMA, INC., priority 2021, published 2024)

Tested on: AGS cells (KRAS^G12D)
Test: Detection of cell proliferation in vitro by MTT/MTS method (cell activity experiment)
Format: cell-based
Details: Homo sapiens, AGS, 72 h, AGS cells; MTT/MTS; 3 days of drug treatment; read-out: AGS IC50
Experimental: The above cells were cultured in a complete medium containing 10% fetal bovine serum, 100 IU/mL penicillin and 100 jag/mL streptomycin, in the aseptic incubator with 95% relative humidity and 5% CO2 concentration.
2. Reagents: F12K, D-PBS, FBS, Penicillin Streptomycin, Tryple, MTT (5 mg/mL)
Appropriate amount of compound powder was weighed in a 1.5 mL centrifuge tube, then the corresponding volume of dimethyl sulfoxide (DMSO) was added to form a 20 mM reserve solution. The solution was packed separately and stored in a refrigerator at −20° C. away from light.
The cells were inoculated in a cell culture bottle, added an appropriate amount of complete medium, and cultured in a sterile incubator. When the degree of cell confluence reached more than 80%, subculture was carried out.
The adherent cells in logarithmic growth phase were digested by trypsin or the suspension cells were collected by centrifugation and counted. 90 μL cell suspension was inoculated into 96-well plate according to the cell inoculation density of 1000 cells per well, and 10 μL of 10-fold final concentration compound diluted by culture medium was added 24 hours later. Compared with the hole with the same volume of 5% DMSO as control, the final concentration of DMSO was 0.5%. After 3 days of drug treatment, the cell viability was detected by MTT. The specific methods are as follows: 10 μL MTT per well was added into the incubator for 4 hours, the supernatant was discarded and 150 μL DMSO was added to dissolve the crystal methylazan, and the absorbance of 490 nm was detected by enzyme labeling instrument, or 10 μL MITS per well was added to the incubator for 4 hours, and […] absorbance was detected directly by enzyme labeling instrument. GraphPad Prism 6 software makes dose-effect curve and calculates IC50.

Compound	IC50 [nM]
C#Cc1c(F)ccc2cc(O)cc(-c3ccc4c(N5CC6CCNC6C5)nc(OC[C@@]56CCCN5C[C@H](F)C6)nc4c3F)c12 (stereo partly drawn) [Example 113, 5-ethynyl-6-fluoro-4-(8-fluoro-2-(((2R,7aS)-2-fluorotetrahydro-1H-pyrrolizin-7a(5H)-yl)methoxy)-4-(hexahydropyrrolo[3,4-b]pyrrol-5(1H)-yl)quinazolin-7-yl) naphthalen-2-ol]	> 2500
C#Cc1c(F)ccc2cc(O)cc(-c3ncc4c(N5CC6CCC(C5)C6C#N)nc(OC[C@@]56CCCN5C[C@H](F)C6)nc4c3F)c12 (stereo partly drawn) [Example 62, (1R,5S,8S)-3-(7-(8-ethynyl-7-fluoro-3-hydroxynaphthalen-1-yl)-8-fluoro-2-(((2R, 7aS)-2-fluorotetrahydro-1H-pyrrolizin-7a(5H)-yl)methoxy)pyrido[4,3-d]pyrimidin-4-yl)-3-azabicyclo[3.2.1] octane-8-carbonitrile]	> 2500
CCC1CCCc2cc(O)cc(-c3ccc4c(N5C[C@H]6CC[C@@H](C5)N6)nc(OC[C@@]56CCCN5C[C@H](F)C6)nc4c3F)c21 (stereo partly drawn) [Example 289, 4-(4-((1R,5S)-3,8-diazabicyclo[3.2.1]octan-3-yl)-8-fluoro-2-(((2R,7aS)-2-fluorotetrahydro-1H-pyrrolizin-7a(5H)-yl)methoxy)quinazolin-7-yl)-5-ethyl-5,6,7,8-tetrahydronaphthalen-2-ol]	15
Oc1cc(-c2ccc3c(N4C[C@H]5CC[C@@H](C4)N5)nc(OC[C@@]45CCCN4C[C@H](F)C5)nc3c2F)c2c(F)c(F)ccc2c1 [Example 94, 4-(4-((1R,5S)-3,8-diazabicyclo[3.2.1]octan-3-yl)-8-fluoro-2-(((2R,7aS)-2-fluorotetrahydro-1H-pyrrolizin-7a(5H)-yl)methoxy)quinazolin-7-yl)-5,6-difluoronaphthalen-2-ol]	1.5
CCC1CCCc2cc(O)cc(-c3ccc4c(NCC5(N(C)C)CCC5)nc(OC[C@@]56CCCN5C[C@H](F)C6)nc4c3F)c21 (stereo partly drawn) [Example 428, 4-(4-(((1-(dimethylamino)cyclobutyl)methyl)amino)-8-fluoro-2-(((2R,7aS)-2-fluorotetrahydro-1H-pyrrolizin-7a(5H)-yl)methoxy)quinazolin-7-yl)-5-ethyl-5,6,7,8-tetrahydronaphthalen-2-ol]	70
CCC1CCc2cc(O)cc(-c3ncc4c(NCC5(N(C)C)CCC5)nc(OC[C@@]56CCCN5C[C@H](F)C6)nc4c3F)c21 (stereo partly drawn) [Example 423, 7-(4-(((1-(dimethylamino)cyclobutyl)methyl)amino)-8-fluoro-2-(((2R,7aS)-2-fluorotetrahydro-1H-pyrrolizin-7a(5H)-yl)methoxy)pyrido[4,3-d]pyrimidin-7-yl)-1-ethyl-2,3-dihydro-1H-inden-5-ol]	55
CC1CCCc2cc(O)cc(-c3ccc4c(NCC5(N(C)C)CCC5)nc(OC[C@@]56CCCN5C[C@H](F)C6)nc4c3F)c21 (stereo partly drawn) [Example 427, 4-(4-(((1-(dimethylamino)cyclobutyl)methyl)amino)-8-fluoro-2-(((2R,7aS)-2-fluorotetrahydro-1H-pyrrolizin-7a(5H)-yl)methoxy)quinazolin-7-yl)-5-methyl-5,6,7,8-tetrahydronaphthalen-2-ol]	55
C#Cc1cccc2cc(O)cc(-c3ccc4c(N5C[C@H]6CC[C@@H](C5)O6)nc(OC[C@@]56CCCN5C[C@H](F)C6)nc4c3F)c12 [Example 157, 4-(4-((1R,5S)-8-oxa-3-azabicyclo[3.2.1]octan-3-yl)-8-fluoro-2-(((2R,7aS)-2-fluorotetrahydro-1H-pyrrolizin-7a(5H)-yl)methoxy)quinazolin-7-yl)-5-ethynylnaphthalen-2-ol]	330
C#Cc1c(F)ccc2cc(O)cc(-c3ccc4c(N5C[C@H]6CC[C@@H](C5)N6)nc(OC[C@@]56CCCN5C[C@H](F)C6)nc4c3O)c12 [Example 328, 4-((1R,5S)-3,8-diazabicyclo[3.2.1]octan-3-yl)-7-(8-ethynyl-7-fluoro-3-hydroxynaphthalen-1-yl)-2-(((2R,7aS)-2-fluorotetrahydro-1H-pyrrolizin-7a(5H)-yl)methoxy)quinazolin-8-ol]	8910
Oc1cc(-c2ccc3c(N4C[C@H]5CC[C@@H](C4)N5)nc(OC[C@@]45CCCN4C[C@H](F)C5)nc3n2)c2c(F)cccc2c1 [Example 143, 4-(4-((1R,5S)-3,8-diazabicyclo[3.2.1]octan-3-yl)-2-(((2R,7aS)-2-fluorotetrahydro-1H-pyrrolizin-7a(5H)-yl)methoxy)pyrido[2,3-d]pyrimidin-7-yl)-5-fluoronaphthalen-2-ol]	> 2500
Oc1cc(-c2ncc3c(N4C[C@H]5CC[C@@H](C4)S5)nc(OC[C@@]45CCCN4C[C@H](F)C5)nc3c2F)c2c(F)c(F)ccc2c1 [Example 27, 4-(4-((1R,5S)-8-thia-3-azabicyclo[3.2.1]octan-3-yl)-8-fluoro-2-(((2R,7aS)-2-fluorotetrahydro-1H-pyrrolizin-7a(5H)-yl)methoxy)pyrido[4,3-d]pyrimidin-7-yl)-5,6-difluoronaphthalen-2-ol]	295
CCc1c(F)ccc2cc(O)cc(-c3ncc4c(N5C[C@H]6CC[C@@H](C5)N6)nc(OCC5(CN6CCCC6)CC5)nc4c3F)c12 [Example 3, 4-(4-((1R,5S)-3,8-diazabicyclo[3.2.1]octan-3-yl)-8-fluoro-2-((1-(pyrrolidin-1-ylmethyl)cyclopropyl)methoxy)pyrido[4,3-d]pyrimidin-7-yl)-5-ethyl-6-fluoronaphthalen-2-ol]	4.5
CCC1CCc2cc(O)cc(-c3c(F)c4nc(OC[C@@]56CCCN5C[C@H](F)C6)nc(N5C[C@H]6CC[C@@H](C5)N6)c4c4nccn34)c21 (stereo partly drawn) [Example 415, 7-(10-((1R,5S)-3,8-diazabicyclo[3.2.1]octan-3-yl)-6-fluoro-8-(((2R,7aS)-2-fluorotetrahydro-1H-pyrrolizin-7a(5H)-yl)methoxy)imidazo[1′,2′:1,2]pyrido[4,3-d]pyrimidin-5-yl)-1-ethyl-2,3-dihydro-1H-inden-5-ol]	60
C#Cc1c(F)ccc2cc(O)cc(-c3ncc4c(N5CC6CC(C5)N6)nc(OC[C@@]56CCCN5C[C@H](F)C6)nc4c3F)c12 [Example 45, 4-(4-(3,6-diazabicyclo [3.1.1]heptan-3-yl)-8-fluoro-2-(((2R,7aS)-2-fluorotetrahydro-1H-pyrrolizin-7a(5H)-yl)methoxy)pyrido[4,3-d]pyrimidin-7-yl)-5-ethynyl-6-fluoronaphthalen-2-ol]	39
C#Cc1c(F)ccc2cc(O)cc(-c3c(Cl)cc4c(N5C[C@H]6CC[C@@H](C5)N6)nc(OC[C@@]56CCCN5C[C@H](F)C6)nc4c3OC3CC3)c12 [Example 330, 4-(4-((1R,5S)-3,8-diazabicyclo[3.2.1]octan-3-yl)-6-chloro-8-cyclopropoxy-2-(((2R,7aS)-2-fluorotetrahydro-1H-pyrrolizin-7a(5H)-yl)methoxy)quinazolin-7-yl)-5-ethynyl-6-fluoronaphthalen-2-ol]	195
C#Cc1c(F)ccc2cc(O)cc(-c3ccc4c(N5C[C@H]6CC[C@@H](C5)N6)nc(OCC5(CN6CCCC6)CC5)nc4c3F)c12 [Example 99, 4-(4-((1R,5S)-3,8-diazabicyclo[3.2.1]octan-3-yl)-8-fluoro-2-((1-(pyrrolidin-1-ylmethyl)cyclopropyl)methoxy)quinazolin-7-yl)-5-ethynyl-6-fluoronaphthalen-2-ol]	8.8
C#Cc1c(F)ccc2cc(O)cc(-c3ccc4c(N5C[C@H]6CC[C@@H](C5)N6)c(C#N)c(OC[C@@]56CCCN5C[C@H](F)C6)nc4c3)c12 [Example 171, 4-((1R,5S)-3,8-diazabicyclo[3.2.1]octan-3-yl)-7-(8-ethynyl-7-fluoro-3-hydroxynaphthalen-1-yl)-2-(((2R,7aS)-2-fluorotetrahydro-1H-pyrrolizin-7a(5H)-yl)methoxy)quinoline-3-carbonitrile]	1240
CC1CCCc2cc(O)cc(-c3ccc4c(N5C[C@H]6CC[C@@H](C5)N6)nc(OC[C@@]56CCCN5C[C@H](F)C6)nc4c3F)c21 (stereo partly drawn) [Example 282, 4-(4-((1R,5S)-3,8-diazabicyclo[3.2.1]octan-3-yl)-8-fluoro-2-(((2R,7aS)-2-fluorotetrahydro-1H-pyrrolizin-7a(5H)-yl)methoxy)quinazolin-7-yl)-5-methyl-5,6,7,8-tetrahydronaphthalen-2-ol]	15
C#Cc1c(F)ccc2cc(O)cc(-c3ncc4c(N5C[C@H]6CC[C@@H](C5)S6)nc(OC[C@@]56CCCN5C[C@H](F)C6)nc4c3F)c12 [Example 21, 4-(4-((1R,5S)-8-thia-3-azabicyclo[3.2.1]octan-3-yl)-8-fluoro-2-(((2R,7aS)-2-fluorotetrahydro-1H-pyrrolizin-7a(5H)-yl)methoxy)pyrido[4,3-d]pyrimidin-7-yl)-5-ethynyl-6-fluoronaphthalen-2-ol]	269
CCc1c(F)ccc2cc(O)cc(-c3ccc4c(N5C[C@H]6CC[C@@H](C5)N6)nc(OC[C@]56CCCN5[C@@H](COC(=O)N(C)C)CC6)nc4c3)c12 [Example 154, ((3R,7aR)-7a-(((4-((1R, 5S)-3,8-diazabicyclo [3.2.1]octan-3-yl)-7-(8-ethyl-7-fluoro-3-hydroxynaphthalen-1-yl)quinazolin-2-yl)oxy)methyl)hexahydro-1H-pyrrolizin-3-yl) methyl dimethylcarbamate]	195
